Laboratory results taken from PubChem BioAssay (NCI).
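Results reflect a 48-hour exposure of cells in 96-well plates to compound at five concentrations. TGI: total growth inhibition.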

Experiments:
Assay in all cases: growth of human tumour cells (NCI), 48 h
[1] = tested on: OVCAR-5 ovarian
[2] = tested on: HOP-18 NSCLC
[3] = tested on: TK-10 renal
[4] = tested on: UACC-62 melanoma
[5] = tested on: HCT-116 colon
[6] = tested on: DMS 114 small cell lung
[7] = tested on: K-562 leukemia
[8] = tested on: 786-0 renal
[9] = tested on: HT29 colon
[10] = tested on: DLD-1 colon
[11] = tested on: OVCAR-3 ovarian
[12] = tested on: M14 melanoma
[13] = tested on: SK-MEL-5 melanoma
[14] = tested on: HL-60(TB) leukemia
[15] = tested on: OVCAR-4 ovarian
[16] = tested on: SF-295 CNS
[17] = tested on: SW-620 colon
[18] = tested on: MOLT-4 leukemia
[19] = tested on: SK-MEL-28 melanoma
[20] = tested on: NCI-H460 lung
[21] = tested on: HCC-2998 colon
[22] = tested on: SN12C renal
[23] = tested on: A549 NSCLC
[24] = tested on: MALME-3M melanoma
[25] = tested on: HOP-92 NSCLC
[26] = tested on: CCRF-CEM leukemia
[27] = tested on: NCI-H23 lung
[28] = tested on: HCT-15 colon
[29] = tested on: SNB-19 CNS
[30] = tested on: SF-268 CNS
[31] = tested on: OVCAR-8 ovarian
[32] = tested on: ACHN renal
[33] = tested on: COLO 205 colon
[34] = tested on: LXFL 529 NSCLC
[35] = tested on: SK-OV-3 ovarian
[36] = tested on: CAKI-1 renal
[37] = tested on: UACC-257 melanoma
[38] = tested on: A498 renal
[39] = tested on: HOP-62 NSCLC
[40] = tested on: SR leukemia
[41] = tested on: UO-31 renal
[42] = tested on: LOX IMVI melanoma
[43] = tested on: NCI-H226 lung
[44] = tested on: U251 CNS
[45] = tested on: DMS 273 small cell lung
[46] = tested on: RPMI-8226 leukemia
[47] = tested on: M19-MEL melanoma
[48] = tested on: IGROV1 ovarian
[49] = tested on: KM20L2 colon
[50] = tested on: SNB-75 CNS
[51] = tested on: NCI-H522 lung
[52] = tested on: SNB-78 CNS
[53] = tested on: SF-539 CNS
[54] = tested on: RXF 393 renal
[55] = tested on: SK-MEL-2 melanoma
[56] = tested on: KM12 colon
[57] = tested on: XF 498 CNS
[58] = tested on: EKVX NSCLC

Measured: TGI

CCCCCCCCOCC(O)COC (centres undefined)
not listed: [49] | [50] | [51] | [52] | [53] | [54] | [55] | [56] | [57] | [58]
> 100 µM: all other assays above

O=C(c1ccc(Cl)cc1)N(C(=S)N1CCN(c2ccccc2)CC1)C1CCCCC1
20.8 µM: [43]
not listed: [21] | [38] | [57] | [58]
> 100 µM: all other assays above

COc1ccc(/C=N\N2C(=O)Cc3ccccc32)cc1
85.5 µM: [25]
62 µM: [50]
83.9 µM: [57]
not listed: [6] | [22] | [34] | [40] | [51] | [54]
> 100 µM: all other assays above

COc1ccccc1NC(=O)CC(=O)NNCC(=O)Nc1nc(-c2ccccc2)cs1
not listed: [1] | [21] | [24] | [25] | [28] | [32] | [36] | [37] | [38] | [40] | [41] | [55] | [57]
> 100 µM: all other assays above
